# Measurements taken from patent US8722849B2, “Polypeptides” (Novo Nordisk A/S, priority 2011, dated 2014).
# Read-outs that look alike come from different tables or passages of the source. Starred links: 1 amine or outer side, 2 acyl side, 3 side chain; linkers in the order of their positions; H or OH if unused. Positions of bridges follow the written chain, without caps; N, C: chain ends. Residues, ends and D or L forms follow the SMILES beside them. *: point of attachment. C20 diacid = O=C(O)CCCCCCCCCCCCCCCCCCC(=O)*; γGlu = O=C(O)[C@H](CCC(=O)[*:2])N[*:1]
# Key:
# [1] = Assay (IV) determination of solubility; format: physicochemical
# How it was run: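 Solubility is measured across pH 3.0–8.0 by mixing a ~500 nmol/ml aqueous polypeptide stock 1:1 with 100 mM glycylglycine or bistrispropane buffers. Samples stand 18 hours at room temperature, then are centrifuged and the soluble concentration is determined by HPLC.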
# [2] = Assay (III) ThT fibrillation assay for physical stability; format: physicochemical
# How it was run: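 Freshly prepared formulations, pH-adjusted, with 1 μM ThT; four or eight replicates incubated at 37 °C under 960 rpm orbital shaking. Fluorescence (ex 444/em 485 nm) read every 20 min; […]. Peptide concentration measured by RP-HPLC before and after the run.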
# [3] = biological target: T1, human calcitonin receptor (Homo sapiens, UniProt P30988); assay: Assay (II)a functional CRE-luciferase assay, human calcitonin receptor; format: cell-based
# T1 construct: expressed in transfected cells; host or cells: BHK570
# T1 sequence (P30988 25-474): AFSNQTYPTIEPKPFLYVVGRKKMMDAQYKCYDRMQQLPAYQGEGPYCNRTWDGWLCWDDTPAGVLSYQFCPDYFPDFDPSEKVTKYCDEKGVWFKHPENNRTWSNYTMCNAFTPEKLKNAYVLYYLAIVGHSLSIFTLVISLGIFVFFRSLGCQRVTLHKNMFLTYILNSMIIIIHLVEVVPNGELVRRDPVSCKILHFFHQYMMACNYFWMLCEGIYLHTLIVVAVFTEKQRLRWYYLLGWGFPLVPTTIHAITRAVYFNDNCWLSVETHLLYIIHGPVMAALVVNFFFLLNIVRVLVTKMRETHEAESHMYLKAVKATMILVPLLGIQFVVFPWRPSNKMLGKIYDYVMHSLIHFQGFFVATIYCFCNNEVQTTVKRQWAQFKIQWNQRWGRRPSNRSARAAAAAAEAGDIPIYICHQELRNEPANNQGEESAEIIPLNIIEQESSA
# [4] = biological target: T2, human amylin receptor (amylin 3(a) receptor: human calcitonin receptor + RAMP-3) (Homo sapiens, UniProt O60896+P30988); assay: Assay (II)a functional CRE-luciferase assay, human amylin receptor; format: cell-based
# T2 construct: expressed in transfected cells; host or cells: BHK570
# T2 sequence (P30988 25-474): T1 sequence (P30988 25-474)
# T2 sequence (O60896 24-148 partner): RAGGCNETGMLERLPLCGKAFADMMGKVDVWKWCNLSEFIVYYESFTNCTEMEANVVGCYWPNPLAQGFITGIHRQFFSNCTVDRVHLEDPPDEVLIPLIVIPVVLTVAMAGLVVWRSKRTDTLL
# [5] = bistrispropane buffer, pH 6, pH 6.0, read-out: Solubility pH 6.0
# [6] = bistrispropane buffer, pH 6.5, pH 6.5, read-out: Solubility pH 6.5
# [7] = bistrispropane buffer, pH 7, pH 7.0, 18 hours at room temperature, Table 3, read-out: Solubility pH 7.0
# [8] = bistrispropane buffer, pH 7, pH 7.0, Table 8, read-out: Solubility pH 7.0
# [9] = bistrispropane buffer, pH 7, pH 7.0, Table 9, read-out: Solubility pH 7.0
# [10] = bistrispropane buffer, pH 7, pH 7.0, read-out: Solubility pH 7.0
# [11] = bistrispropane buffer, pH 7.5, pH 7.5, Table 9, read-out: Solubility pH 7.5
# [12] = bistrispropane buffer, pH 7.5, pH 7.5, read-out: Solubility pH 7.5
# [13] = bistrispropane buffer, pH 8, pH 8.0, read-out: Solubility pH 8.0
# [14] = glycylglycine buffer, pH 3, pH 3.0, read-out: Solubility pH 3.0
# [15] = glycylglycine buffer, pH 4, pH 4.0, 18 hours at room temperature, Table 2, read-out: Solubility pH 4.0
# [16] = glycylglycine buffer, pH 4, pH 4.0, read-out: Solubility pH 4.0
# [17] = glycylglycine buffer, pH 5, pH 5.0, read-out: Solubility pH 5.0
# [18] = Table 2, BHK amylin 3(a)-receptor/CRE-luc cells
# [19] = Table 7, human calcitonin (CTa) receptor
Compound,"solubility at 18 h [1, 5]","solubility at 18 h [1, 6]","solubility at 18 h [1, 7]","solubility at 18 h [1, 8]","solubility at 18 h [1, 9]","solubility at 18 h [1, 10]","solubility at 18 h [1, 11]","solubility at 18 h [1, 12]","solubility at 18 h [1, 13]","solubility at 18 h [1, 14]","solubility at 18 h [1, 15]","solubility at 18 h [1, 16]","solubility at 18 h [1, 17]",ThT pH 4.0 lag time ([2]; Table 8),ThT pH 4.0 lag time ([2]; Table 9),ThT pH 4.0 lag time ([2]; ThT fibrillation assay),ThT pH 4.0 lag time (h) ([2]; ThT fibrillation assay),"EC50 [4, 18]","EC50 [3, 19]",further results
"CC[C@H](C)[C@H](NC(=O)[C@@H]1CCCN1C(=O)CNC(=O)[C@H](Cc1ccccc1)NC(=O)[C@H](CCC(N)=O)NC(=O)[C@H](CCC(N)=O)NC(=O)[C@H](CO)NC(=O)[C@H](CO)NC(=O)[C@H](Cc1c[nH]cn1)NC(=O)[C@H](CCCNC(=N)N)NC(=O)[C@H](CC(C)C)NC(=O)[C@H](Cc1ccccc1)NC(=O)[C@H](CCC(=O)O)NC(=O)[C@H](C)NC(=O)[C@H](CC(C)C)NC(=O)[C@H](CCCNC(=N)N)NC(=O)[C@H](CCC(N)=O)NC(=O)[C@@H](NC(=O)[C@H](C)NC(=O)[C@@H]1CSSC[C@H](NC(=O)[C@H](CCC(=O)O)NC(=O)[C@H](CCCNC(=N)N)NC(=O)[C@H](CCC(=O)O)NC(=O)CC[C@H](NC(=O)CCCCCCCCCCCCCCCCCCC(=O)O)C(=O)O)C(=O)N[C@@H](CC(N)=O)C(=O)N[C@@H]([C@@H](C)O)C(=O)N[C@@H](C)C(=O)N[C@@H]([C@@H](C)O)C(=O)N1)[C@@H](C)O)C(=O)N[C@@H](CC(C)C)C(=O)N1CCC[C@H]1C(=O)N1CCC[C@H]1C(=O)N[C@H](C(=O)N[C@@H](CCC(N)=O)C(=O)N[C@H](C(=O)NCC(=O)N[C@@H](CO)C(=O)N[C@@H](CCC(N)=O)C(=O)N[C@H](C(=O)N1CCC[C@H]1C(N)=O)[C@@H](C)O)C(C)C)[C@@H](C)O [Example 164, N-alpha-[(S)-4-Carboxy-4-(19-carboxynonadecanoylamino)butyryl]-Glu-Arg-[Glu1,Glu14,Arg17,Gln21,Gln22,Gln31,Gln35,Pro37]-pramlintide] ({C20 diacid-γGlu}-ERECNTATCATQRLAEFLRHSSQQFGPILPPTQVGSQTP-NH2; disulfide 4-9 (inferred))",> 200 µM,> 200 µM,> 200 µM,> 200 µM,> 200 µM,> 200 µM,> 200 µM,> 200 µM,> 200 µM,> 200 µM,> 200 µM,> 200 µM,> 200 µM,>45 h,>45 h,>45 h,>45 h,1.71 nM,–,"EC50 ([3]; Table 11, read-out: CTa receptor human EC50): 3.57 nM"
"CC(C)C[C@H](NC(=O)[C@H](CCCNC(=N)N)NC(=O)[C@H](CCC(N)=O)NC(=O)[C@@H](NC(=O)[C@H](C)NC(=O)[C@@H]1CSSC[C@H](NC(=O)[C@H](CCCCN)NC(=O)CC[C@H](NC(=O)CCCCCCCCCCCCCCCCCCC(=O)O)C(=O)O)C(=O)N[C@@H](CC(N)=O)C(=O)N[C@@H]([C@@H](C)O)C(=O)N[C@@H](C)C(=O)N[C@@H]([C@@H](C)O)C(=O)N1)[C@@H](C)O)C(=O)N[C@@H](C)C(=O)N[C@@H](CCC(=O)O)C(=O)N[C@@H](Cc1ccccc1)C(=O)N[C@@H](CC(C)C)C(=O)N[C@H](C(=O)N[C@@H](CCCNC(=N)N)C(=O)N[C@@H](CO)C(=O)N[C@@H](CO)C(=O)N[C@@H](CCC(N)=O)C(=O)N[C@@H](CC(N)=O)C(=O)N[C@@H](Cc1ccccc1)C(=O)NCC(=O)N[C@@H](C)C(=O)N1CCC[C@H]1C(=O)N[C@@H](CC(C)C)C(=O)N[C@@H](CO)C(=O)N[C@@H](CO)C(=O)N[C@H](C(=O)N[C@@H](CC(N)=O)C(=O)N[C@H](C(=O)NCC(=O)N[C@@H](CO)C(=O)N[C@@H](CC(N)=O)C(=O)N[C@H](C(=O)N1CCC[C@H]1C(N)=O)[C@@H](C)O)C(C)C)[C@@H](C)O)C(C)C [Example 166, N-alpha-[(S)-4-Carboxy-4-(19-carboxynonadecanoylamino)butyryl]-[Glu14,Arg18,Gln21,Ala25,Pro26,Ser28,Ser29,Pro37]-pramlintide] ({C20 diacid-γGlu}-KCNTATCATQRLAEFLVRSSQNFGAPLSSTNVGSNTP-NH2; disulfide 2-7 (inferred); C-terminus assumed)",> 200 µM,> 200 µM,> 200 µM,–,–,> 200 µM,–,> 200 µM,> 200 µM,> 200 µM,> 200 µM,> 200 µM,> 200 µM,–,–,–,1.3 h,0.039 nM,0.034 nM,–
"CC[C@H](C)[C@H](NC(=O)[C@@H]1CCCN1C(=O)CNC(=O)[C@H](Cc1ccccc1)NC(=O)[C@H](CO)NC(=O)[C@H](CO)NC(=O)[C@H](CO)NC(=O)[C@H](CO)NC(=O)[C@H](CCCNC(=N)N)NC(=O)[C@@H](NC(=O)[C@H](CC(C)C)NC(=O)[C@H](Cc1ccccc1)NC(=O)[C@H](CCC(=O)O)NC(=O)[C@H](C)NC(=O)[C@H](CC(C)C)NC(=O)[C@H](CCCNC(=N)N)NC(=O)[C@H](CCC(N)=O)NC(=O)[C@@H](NC(=O)[C@H](C)NC(=O)[C@@H]1CSSC[C@H](NC(=O)[C@H](CCCCN)NC(=O)CC[C@H](NC(=O)CCCCCCCCCCCCCCCCCCC(=O)O)C(=O)O)C(=O)N[C@@H](CC(N)=O)C(=O)N[C@@H]([C@@H](C)O)C(=O)N[C@@H](C)C(=O)N[C@@H]([C@@H](C)O)C(=O)N1)[C@@H](C)O)C(C)C)C(=O)N[C@@H](CC(C)C)C(=O)N[C@@H](CO)C(=O)N[C@@H](CO)C(=O)N[C@H](C(=O)N[C@@H](CC(=O)O)C(=O)N[C@H](C(=O)NCC(=O)N[C@@H](CO)C(=O)N[C@@H](CC(=O)O)C(=O)N[C@H](C(=O)N1CCC[C@H]1C(N)=O)[C@@H](C)O)C(C)C)[C@@H](C)O [Example 170, N-alpha-[(S)-4-Carboxy-4-(19-carboxynonadecanoylamino)butyryl]-[Glu14,Arg18,Ser21,Ser22,Ser28,Ser29,Asp31,Asp35,Pro37]-pramlintide] ({C20 diacid-γGlu}-KCNTATCATQRLAEFLVRSSSSFGPILSSTDVGSDTP-NH2; disulfide 2-7 (inferred))",> 200 µM,> 200 µM,> 200 µM,> 200 µM,> 200 µM,> 200 µM,> 200 µM,> 200 µM,188 µM,> 200 µM,> 200 µM,> 200 µM,186 µM,>45 h,>45 h,>45 h,>45 h,0.09 nM,0.076 nM,–
"{C20 diacid-γGlu}-SSGSSGCNTATCATQRLAEFLHHSSNNFGPILPPTNVGSNTY-NH2 (disulfide 7-12 (inferred)) [Example 39, N-alpha-[(S)-4-Carboxy-4-(19-carboxynonadecanoylamino)butyryl]-Ser-Ser-Gly-Ser-Ser-[Gly1,Glu14,His17]-pramlintide]",6 µM,4 µM,–,–,–,1 µM,–,25 µM,26 µM,> 200 µM,–,84 µM,52 µM,–,–,–,0 h,–,0.432 nM,"EC50 ([4]; Table 6, human amylin receptor): 0.253 nM"
"{C20 diacid-γGlu}-SSGSSGHCNTATCATQRLAEFLHHSSNNFGPILPPTNVGSNTY-NH2 (disulfide 8-13 (inferred); C-terminus assumed) [Example 44, N-alpha-[(S)-4-Carboxy-4-(19-carboxynonadecanoylamino)butyryl]-Ser-Ser-Gly-Ser-Ser-Gly-[His1,Glu14,His17]-pramlintide]",21 µM,20 µM,–,–,–,52 µM,–,> 200 µM,> 200 µM,> 200 µM,> 200 µM,> 200 µM,> 200 µM,–,–,–,10.6 h,0.305 nM,0.669 nM,–
